In the supplement of paper PMC10307832:

Experiments:
Experiment in all cases: relative viability (nuclei count vs DMSO), 5 days (fraction); higher = more cells survive
NCI-H650 = system: NCI-H650
Outline: (§1)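 Values are medians from duplicate plates. Each reflects relative viability, defined as the nuclei count of treated wells over that of vehicle wells. Lung cancer cell lines in 1536-well plates were pin-tool dosed one day after seeding with one drug alone or with a fixed anchor-drug dose plus five library-drug doses (not always all listed) in √10 steps, then fixed, stained and imaged at 4× after 5 days.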

NCI-H1437 = system: NCI-H1437
Outline: as §1

NCI-H2405 = system: NCI-H2405
Outline: as §1

NCI-H647 = system: NCI-H647
Outline: as §1

NCI-H2023 = system: NCI-H2023
Outline: as §1

NCI-H460 = system: NCI-H460
Outline: as §1

NCI-H2126 = system: NCI-H2126
Outline: as §1

EPLC-272H = system: EPLC-272H
Outline: as §1

HOP-62 = system: HOP-62
Outline: as §1

NCI-H441 = system: NCI-H441
Outline: as §1

SW 1573 = system: SW 1573
Outline: as §1

NCI-H2347 = system: NCI-H2347
Outline: as §1

LOU-NH91 = system: LOU-NH91
Outline: as §1

ChaGo-K-1 = system: ChaGo-K-1
Outline: as §1

NCI-H2009 = system: NCI-H2009
Outline: as §1

NCI-H520 = system: NCI-H520
Outline: as §1

EMC-BAC-2 = system: EMC-BAC-2
Outline: as §1

HCC-44 = system: HCC-44
Outline: as §1

NCI-H727 = system: NCI-H727
Outline: as §1

LCLC-103H = system: LCLC-103H
Outline: as §1

PC-14 = system: PC-14
Outline: as §1

NCI-H23 = system: NCI-H23
Outline: as §1

## CCCCCCCCCCCC1=C(O)C(=O)C=C(O)C1=O [Embelin] + CC(C)C[C@H](NC(=O)[C@H](Cc1ccccc1)NC(=O)c1cnccn1)B(O)O [Bortezomib] (partner 0.002 µM)
NCI-H650; first compound 0.08 µM
  relative viability: 0.64
NCI-H650; first compound 0.8 µM
  relative viability: 1
NCI-H650; first compound 2.53 µM
  relative viability: 0.668
NCI-H650; first compound 8 µM
  relative viability: 0.453
NCI-H1437; first compound 0.08 µM
  relative viability: 0.602
NCI-H1437; first compound 0.8 µM
  relative viability: 0.528
NCI-H1437; first compound 2.53 µM
  relative viability: 0.618
NCI-H1437; first compound 8 µM
  relative viability: 0.347
NCI-H2405; first compound 0.08 µM
  relative viability: 1.03
NCI-H2405; first compound 0.8 µM
  relative viability: 1.03
NCI-H2405; first compound 2.53 µM
  relative viability: 1.02
NCI-H2405; first compound 8 µM
  relative viability: 1.01
NCI-H647; first compound 0.08 µM
  relative viability: 1.08
NCI-H647; first compound 0.8 µM
  relative viability: 1.28
NCI-H647; first compound 2.53 µM
  relative viability: 1.43
NCI-H647; first compound 8 µM
  relative viability: 0.929
NCI-H2023; first compound 0.08 µM
  relative viability: 0.915
NCI-H2023; first compound 0.8 µM
  relative viability: 1.12
NCI-H2023; first compound 2.53 µM
  relative viability: 1.07
NCI-H2023; first compound 8 µM
  relative viability: 0.578
NCI-H460; first compound 0.08 µM
  relative viability: 0.961
NCI-H460; first compound 0.8 µM
  relative viability: 1.27
NCI-H460; first compound 2.53 µM
  relative viability: 1.38
NCI-H460; first compound 8 µM
  relative viability: 1.19
NCI-H2126; first compound 0.08 µM
  relative viability: 1.14
NCI-H2126; first compound 0.8 µM
  relative viability: 1.11
NCI-H2126; first compound 2.53 µM
  relative viability: 1.08
NCI-H2126; first compound 8 µM
  relative viability: 1.19
EPLC-272H; first compound 0.08 µM
  relative viability: 0.804
EPLC-272H; first compound 0.8 µM
  relative viability: 1.07
EPLC-272H; first compound 2.53 µM
  relative viability: 1.17
EPLC-272H; first compound 8 µM
  relative viability: 0.86
HOP-62; first compound 0.08 µM
  relative viability: 0.924
HOP-62; first compound 0.8 µM
  relative viability: 0.846
HOP-62; first compound 2.53 µM
  relative viability: 1.15
HOP-62; first compound 8 µM
  relative viability: 0.727
NCI-H441; first compound 0.08 µM
  relative viability: 0.448
NCI-H441; first compound 2.53 µM
  relative viability: 0.251
NCI-H441; first compound 8 µM
  relative viability: 0.475
SW 1573; first compound 0.08 µM
  relative viability: 1.26
SW 1573; first compound 0.8 µM
  relative viability: 1.29
SW 1573; first compound 2.53 µM
  relative viability: 1.2
SW 1573; first compound 8 µM
  relative viability: 1.27
NCI-H2347; first compound 0.08 µM
  relative viability: 1.15
NCI-H2347; first compound 0.8 µM
  relative viability: 1.1
NCI-H2347; first compound 2.53 µM
  relative viability: 1.15
NCI-H2347; first compound 8 µM
  relative viability: 1.05
LOU-NH91; first compound 0.08 µM
  relative viability: 0.554
LOU-NH91; first compound 0.8 µM
  relative viability: 0.578
LOU-NH91; first compound 2.53 µM
  relative viability: 0.504
LOU-NH91; first compound 8 µM
  relative viability: 0.509
ChaGo-K-1; first compound 0.08 µM
  relative viability: 0.988
ChaGo-K-1; first compound 0.8 µM
  relative viability: 1.37
ChaGo-K-1; first compound 2.53 µM
  relative viability: 0.946
ChaGo-K-1; first compound 8 µM
  relative viability: 0.793
NCI-H2009; first compound 0.08 µM
  relative viability: 1.07
NCI-H2009; first compound 0.8 µM
  relative viability: 1.18
NCI-H2009; first compound 2.53 µM
  relative viability: 0.916
NCI-H2009; first compound 8 µM
  relative viability: 0.9
NCI-H520; first compound 0.08 µM
  relative viability: 0.848
NCI-H520; first compound 0.8 µM
  relative viability: 0.255
NCI-H520; first compound 2.53 µM
  relative viability: 0.668
NCI-H520; first compound 8 µM
  relative viability: 0.511
EMC-BAC-2; first compound 0.08 µM
  relative viability: 1.04
EMC-BAC-2; first compound 0.8 µM
  relative viability: 1.18
EMC-BAC-2; first compound 2.53 µM
  relative viability: 1.21
EMC-BAC-2; first compound 8 µM
  relative viability: 1.09
HCC-44; first compound 0.08 µM
  relative viability: 0.838
HCC-44; first compound 0.8 µM
  relative viability: 0.865
HCC-44; first compound 2.53 µM
  relative viability: 0.864
HCC-44; first compound 8 µM
  relative viability: 0.897
NCI-H727; first compound 0.08 µM
  relative viability: 0.813
NCI-H727; first compound 0.8 µM
  relative viability: 0.997
NCI-H727; first compound 2.53 µM
  relative viability: 1.02
NCI-H727; first compound 8 µM
  relative viability: 0.798
LCLC-103H; first compound 0.08 µM
  relative viability: 1
LCLC-103H; first compound 0.8 µM
  relative viability: 1.14
LCLC-103H; first compound 2.53 µM
  relative viability: 1.07
LCLC-103H; first compound 8 µM
  relative viability: 0.885
PC-14; first compound 0.08 µM
  relative viability: 0.858
PC-14; first compound 0.8 µM
  relative viability: 0.899
PC-14; first compound 2.53 µM
  relative viability: 0.84
PC-14; first compound 8 µM
  relative viability: 0.87
NCI-H23; first compound 0.08 µM
  relative viability: 0.971
NCI-H23; first compound 0.8 µM
  relative viability: 1.06
NCI-H23; first compound 2.53 µM
  relative viability: 1.19
NCI-H23; first compound 8 µM
  relative viability: 1.23
